# From BindingDB's records for patent US20230399319 (Japan Tobacco, 2023)
# pIC50: −log10 of the molar value.
# Target: NACHT, LRR and PYD domains-containing protein 3 (Homo sapiens, UniProt Q96P20)
# Assay: Evaluation of NLRP3 Inflammasome Inhibitory Activity Assay
# Protocol: The NLRP3 inflammasome inhibitory activity of test compounds were evaluated CM the basis of the inhibitory activity of the IL-1β, production in THP1-Null cells (Product Number: thp-null, InvivoGen). […] A solution containing a test compound (20 μL/well) was added to test compound-setting wells. […] The supernatant of the culture was cryonically stored (set at −20° C.) until measurement of IL-1β.
# Sequence of NACHT, LRR and PYD domains-containing protein 3 (Q96P20 whole entry, the tested form may be a part): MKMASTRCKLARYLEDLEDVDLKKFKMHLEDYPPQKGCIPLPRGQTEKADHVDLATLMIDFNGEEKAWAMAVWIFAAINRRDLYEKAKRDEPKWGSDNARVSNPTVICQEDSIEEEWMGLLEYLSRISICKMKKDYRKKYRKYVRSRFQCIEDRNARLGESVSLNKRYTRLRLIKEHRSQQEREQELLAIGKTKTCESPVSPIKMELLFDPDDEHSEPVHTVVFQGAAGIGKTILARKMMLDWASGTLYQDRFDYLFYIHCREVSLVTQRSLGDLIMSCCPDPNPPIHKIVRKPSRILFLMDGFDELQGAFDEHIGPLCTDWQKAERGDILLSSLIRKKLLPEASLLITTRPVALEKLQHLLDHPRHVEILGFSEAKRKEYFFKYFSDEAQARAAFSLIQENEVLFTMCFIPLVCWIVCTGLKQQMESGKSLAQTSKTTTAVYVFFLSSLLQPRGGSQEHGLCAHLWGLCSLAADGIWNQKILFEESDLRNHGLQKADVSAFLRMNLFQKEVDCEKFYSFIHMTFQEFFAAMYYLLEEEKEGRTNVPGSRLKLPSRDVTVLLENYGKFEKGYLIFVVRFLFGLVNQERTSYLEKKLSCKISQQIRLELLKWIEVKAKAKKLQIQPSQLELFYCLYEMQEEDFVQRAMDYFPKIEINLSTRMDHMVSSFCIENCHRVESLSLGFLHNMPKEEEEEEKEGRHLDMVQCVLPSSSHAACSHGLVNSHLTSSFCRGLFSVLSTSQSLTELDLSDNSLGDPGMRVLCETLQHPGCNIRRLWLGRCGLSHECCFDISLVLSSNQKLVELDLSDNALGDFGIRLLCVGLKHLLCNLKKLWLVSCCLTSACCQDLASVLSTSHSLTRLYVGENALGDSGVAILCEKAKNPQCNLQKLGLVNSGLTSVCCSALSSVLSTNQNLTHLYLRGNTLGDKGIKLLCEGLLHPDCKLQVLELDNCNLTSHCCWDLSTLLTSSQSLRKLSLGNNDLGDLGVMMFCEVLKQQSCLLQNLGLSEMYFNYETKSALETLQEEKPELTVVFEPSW
row,SMILES,pIC50
1,"Cc1ccc(C(F)(F)F)cc1Nc1nc(C(=O)NS(=O)(=O)N2C[C@H]3COC[C@@H]3C2)co1 [US20230399319, Example 2-201]",6.49
2,"CC(C)c1cc(Nc2nc(C(=O)NS(=O)(=O)N3CCCOCC3)co2)n(C(C)C)n1 [US20230399319, Example 2-202]",5.66
3,"Cc1ccc(C(F)(F)F)cc1Nc1nc(C(=O)NS(=O)(=O)N(C)CC2CCCCC2)co1 [US20230399319, Example 2-206]",6.82
4,"Cc1ccc(C(F)(F)F)cc1Nc1nc(C(=O)NS(=O)(=O)N(Cc2ccccc2)C(C)C)co1 [US20230399319, Example 2-207]",6.74
5,"Cc1ccc(C(F)(F)F)cc1Nc1nc(C(=O)NS(=O)(=O)N(C)CC2CCCC2)co1 [US20230399319, Example 2-208]",7.05
6,"Cc1cn(C(C)C)nc1Nc1nc(C(=O)NS(=O)(=O)N2CCOCC(F)(F)C2)co1 [US20230399319, Example 2-212]",6.55
7,"Cc1ccc(C(F)(F)F)cc1Nc1nc(C(=O)NS(=O)(=O)N2CCC(C#N)C2)co1 (configuration not stated) [US20230399319, Example 2-221]",6.68
8,"CCCC1CCCN(S(=O)(=O)NC(=O)c2coc(Nc3cc(C(F)(F)F)ccc3C)n2)CC1 (configuration not stated) [US20230399319, Example 2-233]",6.32
9,"Cc1ccc(C(F)(F)F)cc1Nc1nc(C(=O)NS(=O)(=O)N2CCCC(F)(F)CC2)co1 [US20230399319, Example 2-234]",7.30
10,"COCCCN(C)S(=O)(=O)NC(=O)c1coc(Nc2cc(C(F)(F)F)ccc2C)n1 [US20230399319, Example 2-235]",7.03
11,"Cc1ccc(C(F)(F)F)cc1Nc1nc(C(=O)NS(=O)(=O)N(C)Cc2cnccn2)co1 [US20230399319, Example 2-236]",7.00
12,"Cc1ccc(C(F)(F)F)cc1Nc1nc(C(=O)NS(=O)(=O)N2CCCS(=O)(=O)CC2)co1 [US20230399319, Example 2-239]",6.77
13,"CCC1(C#N)CCCN(S(=O)(=O)NC(=O)c2coc(Nc3cc(C(F)(F)F)ccc3C)n2)CC1 (configuration not stated) [US20230399319, Example 2-240]",7.51
14,"CCCCS(=O)(=O)N1CCN(S(=O)(=O)NC(=O)c2coc(Nc3cc(C(F)(F)F)ccc3C)n2)CC1 [US20230399319, Example 2-247]",7.66
15,"CCCCC1(C#N)CCCN(S(=O)(=O)NC(=O)c2coc(Nc3cc(C(F)(F)F)ccc3C)n2)CC1 (configuration not stated) [US20230399319, Example 2-249]",7.52
16,"COCCC1(C#N)CCCN(S(=O)(=O)NC(=O)c2coc(Nc3cc(C(F)(F)F)ccc3C)n2)CC1 (configuration not stated) [US20230399319, Example 2-250]",7.52
17,"CCC(=O)N(C)C1CCCN(S(=O)(=O)NC(=O)c2coc(Nc3cc(C(F)(F)F)ccc3C)n2)C1 (configuration not stated) [US20230399319, Example 2-255]",6.68
18,"Cc1ccc(C(F)(F)F)cc1Nc1nc(C(=O)NS(=O)(=O)N2CCCC(C#N)(C(=O)N(C)C)CC2)co1 (configuration not stated) [US20230399319, Example 2-260]",7.39
19,"Cc1ccc(C(F)(F)F)cc1Nc1nc(C(=O)NS(=O)(=O)N2CCCC(C#N)(C(=O)N3CCCC3)CC2)co1 (configuration not stated) [US20230399319, Example 2-261]",7.55
20,"Cc1ccc(C(F)(F)F)cc1Nc1nc(C(=O)NS(=O)(=O)N2CCN(c3ncccn3)CC2)co1 [US20230399319, Example 2-265]",5.96
21,"Cc1ccc(C(F)(F)F)cc1Nc1nc(C(=O)NS(=O)(=O)N2CCN(S(=O)(=O)N(C)C)CC2)co1 [US20230399319, Example 2-266]",7.30

row,SMILES,pIC50
1,"Cc1ccc(C(F)(F)F)cc1Nc1nc(C(=O)NS(=O)(=O)N2CCN(S(=O)(=O)C(C)C)CC2)co1 [US20230399319, Example 2-267]",7.06
2,"COCCN(Cc1ccccc1)S(=O)(=O)NC(=O)c1coc(Nc2cc(C(F)(F)F)ccc2C)n1 [US20230399319, Example 2-268]",7.26
3,"Cc1ccc(C(F)(F)F)cc1Nc1nc(C(=O)NS(=O)(=O)N2CCN(c3ccccc3)CC2)co1 [US20230399319, Example 2-274]",6.74
4,"Cc1ccc(C(F)(F)F)cc1Nc1nc(C(=O)NS(=O)(=O)N(C)CCn2cccn2)co1 [US20230399319, Example 2-279]",7.13
5,"Cc1ccc(C(F)(F)F)cc1Nc1nc(C(=O)NS(=O)(=O)N(C)CCS(C)(=O)=O)co1 [US20230399319, Example 2-280]",6.38
6,"Cc1ccc(C(F)(F)F)cc1Nc1nc(C(=O)NS(=O)(=O)N2CCC(c3ccccc3)CC2)co1 [US20230399319, Example 2-282]",5.60
7,"Cc1ccc(C(F)(F)F)cc1Nc1nc(C(=O)NS(=O)(=O)N2CCCC(c3ccccc3)C2)co1 (configuration not stated) [US20230399319, Example 2-284]",5.85
8,"Cc1noc(C2(C)CCN(S(=O)(=O)NC(=O)c3coc(Nc4cc(C(F)(F)F)ccc4C)n3)CC2)n1 [US20230399319, Example 2-285]",6.77
9,"Cc1ccc(C(F)(F)F)cc1Nc1nc(C(=O)NS(=O)(=O)N(C)CCc2ccccn2)co1 [US20230399319, Example 2-287]",7.19
10,"COCC(C)CN(C)S(=O)(=O)NC(=O)c1coc(Nc2cc(C(F)(F)F)ccc2C)n1 (configuration not stated) [US20230399319, Example 2-296]",7.09
11,"Cc1ccc(C)c(Nc2nc(C(=O)NS(=O)(=O)N3CCCC(C#N)CC3)co2)c1 (configuration not stated) [US20230399319, Example 2-300]",6.72
12,"CCCS(=O)(=O)C1CCCN(S(=O)(=O)NC(=O)c2coc(Nc3nn(C(C)C)cc3C)n2)CC1 (configuration not stated) [US20230399319, Example 2-302]",7.44
13,"COC[C@@H]1CCCN1S(=O)(=O)NC(=O)c1coc(Nc2cc(C)ccc2C)n1 [US20230399319, Example 2-303]",6.85
14,"Cc1ccc(C(F)(F)F)cc1Nc1nc(C(=O)NS(=O)(=O)N2CCOCC(n3cccn3)C2)co1 (configuration not stated) [US20230399319, Example 2-304]",7.23
15,"COCC1CCN(S(=O)(=O)NC(=O)c2coc(Nc3cc(C(F)(F)F)ccc3C)n2)C1 (configuration not stated) [US20230399319, Example 2-307]",7.16
16,"CCCS(=O)(=O)C1CCCN(S(=O)(=O)NC(=O)c2coc(Nc3cc(C)ccc3C(C)C)n2)CC1 (configuration not stated) [US20230399319, Example 2-311]",7.74
17,"Cc1ccc(C(F)(F)F)cc1Nc1nc(C(=O)NS(=O)(=O)N2CCCN(c3ncccn3)[C@H](C)C2)co1 [US20230399319, Example 2-313]",7.66
18,"CCOC[C@@H]1CCCN1S(=O)(=O)NC(=O)c1coc(Nc2cc(C)ccc2C)n1 [US20230399319, Example 2-314]",6.68
19,"CCCS(=O)(=O)C1CCCN(S(=O)(=O)NC(=O)c2coc(Nc3nc(C(F)(F)F)ccc3C(C)C)n2)CC1 (configuration not stated) [US20230399319, Example 2-315]",7.07
20,"CCCS(=O)(=O)C1CCCN(S(=O)(=O)NC(=O)c2coc(Nc3cc(C(F)(F)F)ccc3C(C)C)n2)CC1 (configuration not stated) [US20230399319, Example 2-316]",7.66
21,"Cc1ccc(C(F)(F)F)cc1Nc1nc(C(=O)NS(=O)(=O)N2CCCC(S(=O)(=O)C(C)C)CC2)co1 (configuration not stated) [US20230399319, Example 2-317]",7.57

row,SMILES,pIC50
1,"COC[C@@H]1CCCN1S(=O)(=O)NC(=O)c1coc(Nc2cc(C)ccc2C(C)C)n1 [US20230399319, Example 2-322]",6.57
2,"CCCOCC1CCN(S(=O)(=O)NC(=O)c2coc(Nc3cc(C)ccc3C)n2)CCO1 (configuration not stated) [US20230399319, Example 2-323]",7.46
3,"Cc1cc(Nc2nc(C(=O)NS(=O)(=O)N3CCCOCC3)co2)c(C(C)C)cc1F [US20230399319, Example 2-334]",7.59
4,"CCOCC1CCN(S(=O)(=O)NC(=O)c2coc(Nc3cc(C)c(F)cc3C(C)C)n2)CCO1 (configuration not stated) [US20230399319, Example 2-335]",7.74
5,"Cc1cc(F)c(C(C)C)cc1Nc1nc(C(=O)NS(=O)(=O)N2CCCOCC2)co1 [US20230399319, Example 2-336]",8.00
6,"CCOCC1CCN(S(=O)(=O)NC(=O)c2coc(Nc3cc(C(C)C)c(F)cc3C)n2)CCO1 (configuration not stated) [US20230399319, Example 2-337]",7.89
7,"Cc1ccc(C(F)(F)F)cc1Nc1nc(C(=O)NS(=O)(=O)N(C)CCC(=O)N(C)C)co1 [US20230399319, Example 2-338]",7.11
8,"Cc1cc(Nc2nc(C(=O)NS(=O)(=O)N3CCCOCC3)co2)c(C)cc1F [US20230399319, Example 2-339]",7.52
9,"CCOCC1CCN(S(=O)(=O)NC(=O)c2coc(Nc3cc(C)c(F)cc3C)n2)CCO1 (configuration not stated) [US20230399319, Example 2-340]",7.92
10,"Cc1ccc(C(C)C)cc1Nc1nc(C(=O)NS(=O)(=O)N2CCOC(CN(C)C)CC2)co1 (configuration not stated) [US20230399319, Example 2-341]",7.06
11,"Cc1ccc(C)c(Nc2nc(C(=O)NS(=O)(=O)N3CCOC(COCC4CCC4)CC3)co2)c1 (configuration not stated) [US20230399319, Example 2-342]",8.00
12,"COC1COCCN(S(=O)(=O)NC(=O)c2coc(Nc3cc(C(C)C)c(F)cc3C)n2)C1 (configuration not stated) [US20230399319, Example 2-343]",7.80
13,"COC[C@@H]1CCN(S(=O)(=O)NC(=O)c2coc(Nc3cc(C)c(F)cc3C)n2)CCO1 [US20230399319, Example 2-347]",7.26
14,"Cc1cc(F)c(C(C)C)cc1Nc1nc(C(=O)NS(=O)(=O)N2CCOC(CO)CC2)co1 (configuration not stated) [US20230399319, Example 2-348]",7.55
15,"Cc1ccc(C)c(Nc2nc(C(=O)NS(=O)(=O)N3CCOC(CC#N)CC3)co2)c1 (configuration not stated) [US20230399319, Example 2-349]",5.92
16,"Cc1cc(F)c(C(C)C)cc1Nc1nc(C(=O)NS(=O)(=O)N2CCOCC(O)C2)co1 (configuration not stated) [US20230399319, Example 2-350]",7.82
17,"Cc1cc(F)c(C(C)C)cc1Nc1nc(C(=O)NS(=O)(=O)N2CCOCC(C)(O)C2)co1 (configuration not stated) [US20230399319, Example 2-351]",7.66
18,"CCOCC1CCN(S(=O)(=O)NC(=O)c2coc(Nc3cc(OC)c(F)cc3C)n2)CCO1 (configuration not stated) [US20230399319, Example 2-352]",7.59
19,"Cc1cc(Nc2nc(C(=O)NS(=O)(=O)N3CCOC(COCC(C)(C)O)CC3)co2)c(C)cc1F (configuration not stated) [US20230399319, Example 2-353]",7.80
20,"COC[C@H]1CCN(S(=O)(=O)NC(=O)c2coc(Nc3cc(C)c(F)cc3C)n2)CCO1 [US20230399319, Example 3-001]",7.14
